Test results as given in ChEMBL document CHEMBL1201862, “PubChem BioAssay data set” (2004).
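The compound was tested at five concentrations on cells cultured in 96-well plates, with a 48-hour exposure period. Abbreviation: GI50, concentration required for 50% inhibition of growth.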 Calls of active or inactive are those of the source. No stated cut-off is given here; in the data, active = GI50 up to about 1.1 µM and inactive = higher.

How the values were obtained:
Assay in all cases: NCI anticancer screen, dose series, 48 h
[1] = system: EKVX
[2] = system: IGROV-1
[3] = system: NCI-H460
[4] = system: HCT-15
[5] = system: A549
[6] = system: MOLT-4
[7] = system: ACHN
[8] = system: K562
[9] = system: HOP-62
[10] = system: SK-MEL-5
[11] = system: Malme-3M
[12] = system: A498
[13] = system: RXF 393
[14] = system: KM12
[15] = system: NCI-H522
[16] = system: HCC 2998
[17] = system: MDA-N
[18] = system: UO-31
[19] = system: HL-60
[20] = system: RPMI-8226
[21] = system: SNB-19
[22] = system: MCF7
[23] = system: PC-3
[24] = system: SK-OV-3
[25] = system: BT-549
[26] = system: UACC-62
[27] = system: SR
[28] = system: MDA-MB-231
[29] = system: OVCAR-5
[30] = system: OVCAR-8
[31] = system: CAKI-1
[32] = system: SNB-75
[33] = system: M14
[34] = system: COLO 205
[35] = system: CCRF-CEM
[36] = system: LOX IMVI
[37] = system: SF-295
[38] = system: HOP-92
[39] = system: Hs-578T
[40] = system: SF-539
[41] = system: SN12C
[42] = system: OVCAR-3
[43] = system: HT-29
[44] = system: MDA-MB-435
[45] = system: SK-MEL-28
[46] = system: TK-10
[47] = system: T47D
[48] = system: NCI-H226
[49] = system: SK-MEL-2
[50] = system: SW-620
[51] = system: NCI/ADR-RES
[52] = system: U-251
[53] = system: HCT-116
[54] = system: SF-268
[55] = system: DU-145
[56] = system: OVCAR-4
[57] = system: NCI-H23
[58] = system: UACC-257
[59] = system: 786-0

`CCCCCCOP(=O)(OCCCCCC)C(NC(=O)OCC)(C(F)(F)F)C(F)(F)F` was tested, and the GI50 [1] was 64.6 µM (inactive), the GI50 [2] was 34 µM (inactive) and the GI50 [3] was 30.3 µM (inactive). The GI50 [4] was 30.4 µM, the GI50 [5] was 36.9 µM (inactive) and the GI50 [6] was > 100 µM (inactive). For the same compound, the GI50 [7] was 28.8 µM (inactive), the GI50 [8] was 39.4 µM (inactive) and the GI50 [9] was > 100 µM (inactive). For the same compound, the GI50 [10] was 20 µM (inactive), the GI50 [11] was 34.4 µM (inactive) and the GI50 [12] was > 100 µM (inactive). The GI50 [13] was 11.7 µM (inactive), the GI50 [14] was 39.1 µM (inactive) and the GI50 [15] was 28.1 µM (inactive). For the same compound, the GI50 [16] was > 10 µM (inactive), the GI50 [17] was 36 µM (inactive) and the GI50 [18] was 28.6 µM (inactive). The GI50 [19] was > 100 µM (inactive), the GI50 [20] was > 100 µM (inactive) and the GI50 [21] was 39.4 µM (inactive). The GI50 [22] was 37.2 µM (inactive), the GI50 [23] was 33.3 µM (inactive) and the GI50 [24] was 29 µM (inactive). For the same compound, the GI50 [25] was 22.5 µM (inactive), the GI50 [26] was 41.6 µM (inactive) and the GI50 [27] was 50.8 µM (inactive). The GI50 [28] was 24.3 µM (inactive), the GI50 [29] was 43.8 µM (inactive) and the GI50 [30] was 36.1 µM (inactive). For the same compound, the GI50 [31] was 51.6 µM (inactive), the GI50 [32] was 64.3 µM (inactive) and the GI50 [33] was 32 µM (inactive). The GI50 [34] was 16.6 µM (inactive), the GI50 [35] was 42.1 µM (inactive) and the GI50 [36] was 24.6 µM (inactive). For the same compound, the GI50 [37] was 30.3 µM (inactive), the GI50 [38] was 28.4 µM (inactive) and the GI50 [39] was 51.5 µM (inactive). For the same compound, the GI50 [40] was 36.3 µM (inactive), the GI50 [41] was 34 µM (inactive) and the GI50 [42] was 45.1 µM (inactive). The GI50 [43] was 51.4 µM (inactive), the GI50 [44] was 36.6 µM (inactive) and the GI50 [45] was 41.9 µM (inactive). The GI50 [46] was 43.7 µM (inactive), the GI50 [47] was 39.5 µM (inactive) and the GI50 [48] was 24.9 µM (inactive). For the same compound, the GI50 [49] was 22.9 µM (inactive), the GI50 [50] was 33.3 µM (inactive) and the GI50 [51] was 28.8 µM (inactive). The GI50 [52] was 36.8 µM (inactive), the GI50 [53] was 27.4 µM (inactive) and the GI50 [54] was 40.6 µM (inactive). For the same compound, the GI50 [55] was 93.1 µM (inactive).
With `NCC(O)CN.Oc1c(Cl)c(Cl)c(Cl)c(Cl)c1Cl` the GI50 [1] was 14.8 µM (inactive), the GI50 [2] was 13.4 µM (inactive) and the GI50 [3] was 18.7 µM (inactive). The GI50 [4] was 18.2 µM, the GI50 [5] was 18.7 µM (inactive) and the GI50 [6] was 19.7 µM (inactive). For the same compound, the GI50 [7] was 18.3 µM (inactive), the GI50 [8] was 27.9 µM (inactive) and the GI50 [9] was 16.2 µM (inactive). For the same compound, the GI50 [10] was 14.4 µM (inactive), the GI50 [11] was 17.5 µM (inactive) and the GI50 [12] was 17.8 µM (inactive). For the same compound, the GI50 [13] was 27 µM (inactive), the GI50 [56] was 35.9 µM (inactive) and the GI50 [14] was 20.2 µM (inactive). For the same compound, the GI50 [15] was 24.6 µM (inactive), the GI50 [16] was 17.9 µM (inactive) and the GI50 [17] was 24.4 µM (inactive). For the same compound, the GI50 [18] was 16.5 µM (inactive), the GI50 [19] was 16 µM (inactive) and the GI50 [20] was 22.8 µM (inactive). The GI50 [21] was 21 µM (inactive), the GI50 [22] was 32.9 µM (inactive) and the GI50 [23] was 22 µM (inactive). The GI50 [57] was 16.9 µM (inactive), the GI50 [24] was 21.6 µM (inactive) and the GI50 [25] was 24 µM (inactive). The GI50 [26] was 19 µM (inactive), the GI50 [27] was 25.5 µM (inactive) and the GI50 [28] was 20.2 µM (inactive). The GI50 [29] was 18 µM (inactive), the GI50 [58] was 21.2 µM (inactive) and the GI50 [30] was 20.2 µM (inactive). For the same compound, the GI50 [31] was 31.1 µM (inactive), the GI50 [32] was 22.1 µM (inactive) and the GI50 [33] was 19.7 µM (inactive). For the same compound, the GI50 [34] was 21 µM (inactive), the GI50 [36] was 17.3 µM (inactive) and the GI50 [37] was 17.6 µM (inactive). For the same compound, the GI50 [38] was 20.7 µM (inactive), the GI50 [39] was 33.9 µM (inactive) and the GI50 [40] was 24.4 µM (inactive). The GI50 [41] was 20.3 µM (inactive), the GI50 [42] was 13.5 µM (inactive) and the GI50 [43] was 17.8 µM (inactive). For the same compound, the GI50 [44] was 34.4 µM (inactive), the GI50 [59] was 23.6 µM (inactive) and the GI50 [45] was 21.2 µM (inactive). The GI50 [46] was 24.5 µM (inactive), the GI50 [47] was 22.5 µM (inactive) and the GI50 [48] was 18 µM (inactive). The GI50 [49] was 22.5 µM (inactive), the GI50 [50] was 25.2 µM (inactive) and the GI50 [51] was 18.1 µM (inactive). For the same compound, the GI50 [52] was 18.8 µM (inactive), the GI50 [53] was 18.2 µM (inactive) and the GI50 [54] was 29.2 µM (inactive). The GI50 [55] was 31.6 µM (inactive).
